In patent US20250282768A1 (Janssen Pharmaceutica NV, priority 2022, published 2025):

System: p-IKKa levels in L363 (NIK translocated multiple myeloma) cells
Assay: Assay 2: Effect of compounds on p-IKKa levels in L363 (NIK translocated multiple myeloma) cells
Assay type: cell-based
Conditions: Homo sapiens, L-363, 6 h, read-out: Assay 2 IC50 (nM), p-IKKa (Ser 176/180) in BAFF stimulated L363 cells with MG132, 6 h; average if tested more than once
In short: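 Read-out is p-IKKa Ser176/180 by AlphaLISA SureFire in lysates. Cells were BAFF-primed (250 ng/ml) overnight or left unstimulated, then exposed 6 h at 37 °C to compound with MG132 (10 μM), 0.3% DMSO. IC50 from sigmoidal curve fit, normalized between stimulated and unstimulated controls.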

SMILES | IC50 [nM]
CN1CC[C@@](O)(c2cc(-c3cccc(-c4ccnc(Nc5cnn(CCN)c5)n4)n3)no2)C1=O [Example 125, (R)-3-(3-(6-(2-((1-(2-Aminoethyl)-1H-pyrazol-4-yl)amino)pyrimidin-4-yl)pyridin-2-yl)isoxazol-5-yl)-3-hydroxy-1-methylpyrrolidin-2-one] | 50 to 500
CN(C)CCn1ccc(Nc2nccc(-c3cccc(-c4cc([C@]5(O)CCN(C)C5=O)on4)n3)n2)n1 [Example 126, (R)-3-(3-(6-(2-((1-(2-(Dimethylamino)ethyl)-1H-pyrazol-3-yl)amino)pyrimidin-4-yl)pyridin-2-yl)isoxazol-5-yl)-3-hydroxy-1-methylpyrrolidin-2-one] | < 50
CN1CC[C@@](O)(c2cc(-c3cccc(-c4ccnc(Nc5ccnn6ccnc56)n4)n3)no2)C1=O [Example 127, (R)-3-Hydroxy-3-(3-(6-(2-(imidazo[1,2-b]pyridazin-8-ylamino)pyrimidin-4-yl)pyridin-2-yl)isoxazol-5-yl)-1-methylpyrrolidin-2-one] | 50 to 500
Cc1nccc(Nc2nccc(-c3cccc(-c4cc([C@]5(O)CCN(C)C5=O)on4)n3)n2)c1C [Example 128, (R)-3-(3-(6-(2-((2,3-Dimethylpyridin-4-yl)amino)pyrimidin-4-yl)pyridin-2-yl)isoxazol-5-yl)-3-hydroxy-1-methylpyrrolidin-2-one] | < 50
Cc1cc(Nc2nccc(-c3cccc(-c4cc([C@]5(O)CCN(C)C5=O)on4)n3)n2)n(CCO)n1 [Example 129, (R)-3-Hydroxy-3-(3-(6-(2-((1-(2-hydroxyethyl)-3-methyl-1H-pyrazol-5-yl)amino)pyrimidin-4-yl)pyridin-2-yl)isoxazol-5-yl)-1-methylpyrrolidin-2-one] | 50 to 500
CN(C)CCOc1ccc(Nc2nccc(-c3cccc(-c4cc([C@]5(O)CCN(C)C5=O)on4)n3)n2)nn1 [Example 130, (R)-3-(3-(6-(2-((6-(2-(Dimethylamino)ethoxy)pyridazin-3-yl)amino)pyrimidin-4-yl)pyridin-2-yl)isoxazol-5-yl)-3-hydroxy-1-methylpyrrolidin-2-one] | 50 to 500
Cc1ncnn1-c1ccc(Nc2nccc(-c3cccc(-c4cc([C@]5(O)CCN(C)C5=O)on4)n3)n2)nc1 [Example 131, (R)-3-Hydroxy-1-methyl-3-(3-(6-(2-((5-(5-methyl-1H-1,2,4-triazol-1-yl)pyridin-2-yl)amino)pyrimidin-4-yl)pyridin-2-yl)isoxazol-5-yl)pyrrolidin-2-one] | 50 to 500
CN1C(=O)[C@](O)(c2cc(-c3cccc(-c4ccnc(Nc5cnn6c5CCC6)n4)n3)no2)[C@H]2C[C@H]21 [Example 133, (1R,4R,5S)-4-(3-(6-(2-((5,6-Dihydro-4H-pyrrolo[1,2-b]pyrazol-3-yl)amino)pyrimidin-4-yl)pyridin-2-yl)isoxazol-5-yl)-4-hydroxy-2-methyl-2-azabicyclo[3.1.0]hexan-3-one] | < 50
CN1CC[C@@](O)(c2cc(-c3cccc(-c4ccnc(Nc5cnn6c5CCC6)n4)n3)on2)C1=O [Example 134, (R)-3-(5-(6-(2-((5,6-Dihydro-4H-pyrrolo[1,2-b]pyrazol-3-yl)amino)pyrimidin-4-yl)pyridin-2-yl)isoxazol-3-yl)-3-hydroxy-1-methylpyrrolidin-2-one] | < 50
COCn1ncc(Nc2nccc(-c3cccc(-c4cc([C@]5(O)CCN(C)C5=O)no4)n3)n2)n1 [Example 135, (R)-3-Hydroxy-3-(5-(6-(2-((2-(methoxymethyl)-2H-1,2,3-triazol-4-yl)amino)pyrimidin-4-yl)pyridin-2-yl)isoxazol-3-yl)-1-methylpyrrolidin-2-one] | < 50
COc1cc(-c2ccnc(Nc3cnn(C)c3)n2)nc(-n2cc([C@]3(O)CCN(C)C3=O)nn2)c1 [Example 136, (R)-3-Hydroxy-3-(1-(4-methoxy-6-(2-((1-methyl-1H-pyrazol-4-yl)amino)pyrimidin-4-yl)pyridin-2-yl)-1H-1,2,3-triazol-4-yl)-1-methylpyrrolidin-2-one] | < 50
CN1CC[C@@](O)(c2cn(-c3cc(C(F)F)cc(-c4ccnc(Nc5cnn(C)c5)n4)n3)nn2)C1=O [Example 137, (R)-3-(1-(4-(Difluoromethyl)-6-(2-((1-methyl-1H-pyrazol-4-yl)amino)pyrimidin-4-yl)pyridin-2-yl)-1H-1,2,3-triazol-4-yl)-3-hydroxy-1-methylpyrrolidin-2-one] | < 50
COCc1cc(-c2ccnc(Nc3cnn(C)c3)n2)nc(-n2cc([C@]3(O)CCN(C)C3=O)nn2)c1 [Example 138, (R)-3-Hydroxy-3-(1-(4-(methoxymethyl)-6-(2-((1-methyl-1H-pyrazol-4-yl)amino)pyrimidin-4-yl)pyridin-2-yl)-1H-1,2,3-triazol-4-yl)-1-methylpyrrolidin-2-one] | 50 to 500
Cc1nn(CC(F)F)cc1Nc1nccc(-c2cccc(-n3cc([C@]4(O)CCN(C)C4=O)nn3)n2)n1 [Example 144, (R)-3-(1-(6-(2-((1-(2,2-Difluoroethyl)-3-methyl-1H-pyrazol-4-yl)amino)pyrimidin-4-yl)pyridin-2-yl)-1H-1,2,3-triazol-4-yl)-3-hydroxy-1-methylpyrrolidin-2-one] | < 50
COc1cc(-c2cc([C@]3(O)CCN(C)C3=O)on2)nc(-c2ccnc(Nc3cnn(C)c3)n2)c1 [Example 145, (R)-3-Hydroxy-3-(3-(4-methoxy-6-(2-((1-methyl-1H-pyrazol-4-yl)amino)pyrimidin-4-yl)pyridin-2-yl)isoxazol-5-yl)-1-methylpyrrolidin-2-one] | < 50
COc1cc(-c2cc([C@]3(O)CCN(C)C3=O)on2)nc(-c2ccnc(Nc3ccn(C)n3)n2)c1 [Example 146, (R)-3-Hydroxy-3-(3-(4-methoxy-6-(2-((1-methyl-1H-pyrazol-3-yl)amino)pyrimidin-4-yl)pyridin-2-yl)isoxazol-5-yl)-1-methylpyrrolidin-2-one] | < 50
CC(Nc1nccc(-c2cccc(-c3cc([C@]4(O)CCN(C)C4=O)on3)n2)n1)c1cc[nH]n1 (stereo partly drawn) [Example 147, (3R)-3-(3-(6-(2-((1-(1H-Pyrazol-3-yl)ethyl)amino)pyrimidin-4-yl)pyridin-2-yl)isoxazol-5-yl)-3-hydroxy-1-methylpyrrolidin-2-one] | 50 to 500
C[C@@H](O)[C@@H](Nc1nccc(-c2cccc(-c3cc([C@]4(O)CCN(C)C4=O)on3)n2)n1)c1ccccc1 [Example 152, (R)-3-Hydroxy-3-(3-(6-(2-(((1 S,2R)-2-hydroxy-1-phenylpropyl)amino)pyrimidin-4-yl)pyridin-2-yl)isoxazol-5-yl)-1-methylpyrrolidin-2-one] | 50 to 500
C[C@H](Nc1nccc(-c2cccc(-c3cc([C@]4(O)CCN(C)C4=O)on3)n2)n1)c1ccc2nccn2c1 [Example 153, (R)-3-Hydroxy-3-(3-(6-(2-(((S)-1-(imidazo[1,2-a]pyridin-6-yl)ethyl)amino)pyrimidin-4-yl)pyridin-2-yl)isoxazol-5-yl)-1-methylpyrrolidin-2-one] | > 500
C[C@H](O)[C@@H](Nc1nccc(-c2cccc(-c3cc([C@]4(O)CCN(C)C4=O)on3)n2)n1)c1ccccc1 [Example 158, (R)-3-Hydroxy-3-(3-(6-(2-(((1 S,2S)-2-hydroxy-1-phenylpropyl)amino)pyrimidin-4-yl)pyridin-2-yl)isoxazol-5-yl)-1-methylpyrrolidin-2-one] | > 500
C[C@@H](O)[C@H](Nc1nccc(-c2cccc(-c3cc([C@]4(O)CCN(C)C4=O)on3)n2)n1)c1ccccc1 [Example 159, (R)-3-Hydroxy-3-(3-(6-(2-(((1R,2R)-2-hydroxy-1-phenylpropyl)amino)pyrimidin-4-yl)pyridin-2-yl)isoxazol-5-yl)-1-methylpyrrolidin-2-one] | 50 to 500
C[C@@H](Nc1nccc(-c2cccc(-c3cc([C@]4(O)CCN(C)C4=O)on3)n2)n1)C(=O)N1CCC1 [Example 167, (R)-3-(3-(6-(2-(((R)-1-(Azetidin-1-yl)-1-oxopropan-2-yl)amino)pyrimidin-4-yl)pyridin-2-yl)isoxazol-5-yl)-3-hydroxy-1-methylpyrrolidin-2-one] | > 500
C[C@H](Nc1nccc(-c2cccc(-c3cc([C@]4(O)CCN(C)C4=O)on3)n2)n1)C(=O)N1CCC1 [Example 168, (R)-3-(3-(6-(2-(((S)-1-(Azetidin-1-yl)-1-oxopropan-2-yl)amino)pyrimidin-4-yl)pyridin-2-yl)isoxazol-5-yl)-3-hydroxy-1-methylpyrrolidin-2-one] | 50 to 500
C[C@@H](Nc1nccc(-c2cccc(-c3cc([C@]4(O)CCN(C)C4=O)on3)n2)n1)C(=O)N1CC(F)(F)C1 [Example 169, (R)-3-(3-(6-(2-(((R)-1-(3,3-Difluoroazetidin-1-yl)-1-oxopropan-2-yl)amino)pyrimidin-4-yl)pyridin-2-yl)isoxazol-5-yl)-3-hydroxy-1-methylpyrrolidin-2-one] | > 500
C[C@H](Nc1nccc(-c2cccc(-c3cc([C@]4(O)CCN(C)C4=O)on3)n2)n1)C(=O)N1CC(F)(F)C1 [Example 170, (R)-3-(3-(6-(2-(((S)-1-(3,3-Difluoroazetidin-1-yl)-1-oxopropan-2-yl)amino)pyrimidin-4-yl)pyridin-2-yl)isoxazol-5-yl)-3-hydroxy-1-methylpyrrolidin-2-one] | 50 to 500
C[C@@H](Nc1nccc(-c2cccc(-c3cc([C@]4(O)CCN(C)C4=O)on3)n2)n1)C(=O)N1CC(C(F)(F)F)C1 [Example 171, (R)-3-Hydroxy-1-methyl-3-(3-(6-(2-(((R)-1-oxo-1-(3-(trifluoromethyl)azetidin-1-yl)propan-2-yl)amino)pyrimidin-4-yl)pyridin-2-yl)isoxazol-5-yl)pyrrolidin-2-one] | 50 to 500
C[C@H](Nc1nccc(-c2cccc(-c3cc([C@]4(O)CCN(C)C4=O)on3)n2)n1)C(=O)N1CC(C(F)(F)F)C1 [Example 172, (R)-3-Hydroxy-1-methyl-3-(3-(6-(2-(((S)-1-oxo-1-(3-(trifluoromethyl)azetidin-1-yl)propan-2-yl)amino)pyrimidin-4-yl)pyridin-2-yl)isoxazol-5-yl)pyrrolidin-2-one] | 50 to 500
